SMILES strings stand for the structures.

The target of one test is PTGER2 (EP2) (Homo sapiens (Human), UniProt P43116). In words: hEP2 b-arrestin assay (PathHunter HEK 293 PTGER2 b-arrestin cells). It counts as cell-based. The essentials: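 HEK293 cells expressing ProLink-tagged EP2 and EA-fused β-arrestin 2 (enzyme fragment complementation) were seeded 24 h, pre-incubated with compound 15 min at 37 °C, then stimulated with 5 μM PGE2 (final) for 120 min.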

A further test concerns the target PTRGER4 (EP4) (Homo sapiens (Human), UniProt P35408). The experiment in a line: hEP4 b-arrestin assay (PathHunter HEK 293 PTGER4 b-arrestin cells). It counts as cell-based. In outline:
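Stably transfected HEK293 cells carrying EP4–ProLink and β-arrestin 2–EA (β-gal fragment complementation), pre-incubated with compound 15 min at 37 °C, then stimulated with PGE2 (20 nM final) for 120 min at 37 °C. Chemiluminescence read after 1 h detection reagent at room temperature; activity per concentration expressed as percent of DMSO control.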

[1] abbreviates: hEP2 b-arrestin assay (values without asterisk).
[2] abbreviates: hEP4 b-arrestin assay (values without asterisk).
[3] abbreviates: antagonistic activity on hEP2, mean where measured multiple times.
Setting [4] is: antagonistic activity on hEP4, mean where measured multiple times.

Chain of PTGER2 (EP2) (P43116 whole entry, the tested form may be a part): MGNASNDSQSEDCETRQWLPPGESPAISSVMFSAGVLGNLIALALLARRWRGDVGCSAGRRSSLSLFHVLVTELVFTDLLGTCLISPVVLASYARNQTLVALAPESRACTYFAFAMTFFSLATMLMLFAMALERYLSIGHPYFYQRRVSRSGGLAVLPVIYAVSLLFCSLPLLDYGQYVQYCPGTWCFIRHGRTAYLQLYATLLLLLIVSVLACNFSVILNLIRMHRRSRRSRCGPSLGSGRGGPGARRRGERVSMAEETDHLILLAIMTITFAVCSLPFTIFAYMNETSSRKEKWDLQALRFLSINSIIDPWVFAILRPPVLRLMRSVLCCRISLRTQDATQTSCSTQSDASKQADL
Chain of PTRGER4 (EP4) (P35408 whole entry, looked up, the tested form may be a part): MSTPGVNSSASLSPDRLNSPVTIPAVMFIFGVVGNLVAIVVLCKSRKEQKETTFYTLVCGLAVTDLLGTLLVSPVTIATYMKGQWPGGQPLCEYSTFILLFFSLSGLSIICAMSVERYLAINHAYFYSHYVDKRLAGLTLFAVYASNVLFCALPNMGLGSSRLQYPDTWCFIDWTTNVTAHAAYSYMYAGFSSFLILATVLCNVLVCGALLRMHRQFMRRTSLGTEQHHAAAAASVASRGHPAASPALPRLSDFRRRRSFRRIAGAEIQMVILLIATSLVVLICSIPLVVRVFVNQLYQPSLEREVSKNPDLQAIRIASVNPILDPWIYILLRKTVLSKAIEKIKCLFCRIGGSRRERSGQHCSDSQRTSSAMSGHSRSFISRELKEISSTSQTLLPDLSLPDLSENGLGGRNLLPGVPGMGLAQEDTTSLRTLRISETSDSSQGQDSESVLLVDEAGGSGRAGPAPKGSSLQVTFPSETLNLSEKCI

A word on the IC50: it is the concentration that gives 50% inhibition. Low readings indicate greater potency in that assay, high ones weaker potency in that assay. `COc1ccc(F)c2c1cc(C#N)n2CCNc1cc(-c2ccc(C3(F)COC3)s2)ncn1` [Example 1055, 7-Fluoro-1-(2-{6-[5-(3-fluoro-oxetan-3-yl)-thiophen-2-yl]-pyrimidin-4-ylamino}-ethyl)-4-methoxy-1H-indole-2-carbonitrile]: the IC50 against PTGER2 (EP2) (setting [1]) was 0.249 µM; at PTRGER4 (EP4) (setting [2]) it was 0.06 µM.
For the compound `COC(=O)N(C)c1ccc(-c2cc(NCCn3c(C#N)cc4c(OC)ccc(F)c43)ncn2)cc1` [Example 1056, (4-{6-[2-(2-Cyano-7-fluoro-4-methoxy-indol-1-yl)-ethylamino]-pyrimidin-4-yl}-phenyl)-methyl-carbamic acid methyl ester], the IC50 against PTGER2 (EP2) (setting [1]) stood at 0.12 µM; against PTRGER4 (EP4) (setting [2]) it was 0.119 µM.
Take `CCOc1cc(-c2cc(NCCn3c(C)c(F)c4c(OC)ccc(F)c43)ncn2)sc1C(=O)O` [Example 1057, 5-{6-[2-(3,7-Difluoro-4-methoxy-2-methyl-indol-1-yl)-ethylamino]-pyrimidin-4-yl}-3-ethoxy-thiophene-2-carboxylic acid]: the figures for the IC50 at PTGER2 (EP2) (setting [1]) and against PTRGER4 (EP4) (setting [2]) were 0.006 µM and 0.009 µM, respectively.
In the case of `COc1ccc(F)c2c1c(F)c(C)n2CCNc1cc(-c2cc(C(F)(F)F)c(C(=O)O)s2)ncn1` [Example 1058, 5-{6-[2-(3,7-Difluoro-4-methoxy-2-methyl-indol-1-yl)-ethylamino]-pyrimidin-4-yl}-3-trifluoromethyl-thiophene-2-carboxylic acid], the IC50 at PTGER2 (EP2) (setting [1]) was 0.051 µM; at PTRGER4 (EP4) (setting [2]) it was 0.019 µM.
With `COc1ccc(F)c2c1c(F)c(C#N)n2CCNc1cc(-c2cc(C(F)(F)F)c(C(=O)O)s2)ncn1` [Example 1059, 5-{6-[2-(2-Cyano-3,7-difluoro-4-methoxy-indol-1-yl)-ethylamino]-pyrimidin-4-yl}-3-trifluoromethyl-thiophene-2-carboxylic acid], the IC50 was 0.054 µM against PTGER2 (EP2) (setting [1]) and 0.003 µM on PTRGER4 (EP4) (setting [2]).
The matching figures for `COc1ccc(F)c2c1cc(C)n2CCNc1cc(-c2cc(C(F)(F)F)c(-c3nn[nH]n3)s2)ncn1` [Example 1060, [2-(7-Fluoro-4-methoxy-2-methyl-indol-1-yl)-ethyl]-{6-[5-(2H-tetrazol-5-yl)-4-trifluoromethyl-thiophen-2-yl]-pyrimidin-4-yl}-amine]: 0.017 µM and 0.036 µM.
On to `COc1ccc(F)c2c1cc(C)n2CCNc1cc(-c2cc(C(F)(F)F)c(C(=N)NO)s2)ncn1` [Example 1061, 5-{6-[2-(7-Fluoro-4-methoxy-2-methyl-indol-1-yl)-ethylamino]-pyrimidin-4-yl}-N-hydroxy-3-trifluoromethyl-thiophene-2-carboxamidine], for which the results for the IC50 against PTGER2 (EP2) (setting [1]) and against PTRGER4 (EP4) (setting [2]) were 0.019 µM and 0.036 µM, respectively.
Consider `COc1ccc(F)c2c1cc(C)n2CCNc1cc(-c2cc(C(F)(F)F)c(-c3noc(=O)[nH]3)s2)ncn1` [Example 1062, 3-(5-{6-[2-(7-Fluoro-4-methoxy-2-methyl-indol-1-yl)-ethylamino]-pyrimidin-4-yl}-3-trifluoromethyl-thiophen-2-yl)-[1,2,4]oxadiazol-5(4H)-one], for which the IC50 is 0.033 µM against PTGER2 (EP2) (setting [1]) and 0.013 µM on PTRGER4 (EP4) (setting [2]).
In the case of `COc1ccc(F)c2c1cc(C#N)n2CCNc1cc(-c2ccc3c(=O)[nH][nH]c(=O)c3c2)ncn1` [Example 1064, 1-{2-[6-(1,4-Dioxo-1,2,3,4-tetrahydro-phthalazin-6-yl)-pyrimidin-4-ylamino]-ethyl}-7-fluoro-4-methoxy-1H-indole-2-carbonitrile], the IC50 on PTGER2 (EP2) (setting [1]) came to 0.025 µM; against PTRGER4 (EP4) (setting [2]) it was 0.151 µM.
As for `COc1ccc(F)c2c1cc(C)n2CCNc1cc(-c2cc(-c3ccccn3)c(C(=O)O)s2)ncn1` [Example 1066, 5-{6-[2-(7-Fluoro-4-methoxy-2-methyl-indol-1-yl)-ethylamino]-pyrimidin-4-yl}-3-pyridin-2-yl-thiophene-2-carboxylic acid], the IC50 on PTGER2 (EP2) (setting [1]) is 0.003 µM; on PTRGER4 (EP4) (setting [2]), 0.048 µM.
The matching figures for `CCNc1csc(-c2cc(NCCn3c(C)cc4c(OC)ccc(F)c43)ncn2)c1` [Example 1067, [6-(4-Ethylamino-thiophen-2-yl)-pyrimidin-4-yl]-[2-(7-fluoro-4-methoxy-2-methyl-indol-1-yl)-ethyl]-amine]: 0.088 µM and 0.067 µM.
`CCNc1csc(-c2cc(NCCn3c(C)cc4c(C)ccc(F)c43)ncn2)c1` [Example 1068, [6-(4-Ethylamino-thiophen-2-yl)-pyrimidin-4-yl]-[2-(7-fluoro-2,4-dimethyl-indol-1-yl)-ethyl]-amine]: the IC50 against PTGER2 (EP2) (setting [1]) was 0.01 µM; on PTRGER4 (EP4) (setting [2]), 0.015 µM.
With `CCNc1csc(-c2cc(NCCn3c(C)cc4c(C)cc(F)cc43)ncn2)c1` [Example 1069, [6-(4-Ethylamino-thiophen-2-yl)-pyrimidin-4-yl]-[2-(6-fluoro-2,4-dimethyl-indol-1-yl)-ethyl]-amine], the figures for the IC50 against PTGER2 (EP2) (setting [1]) and against PTRGER4 (EP4) (setting [2]) were 0.009 µM and 0.041 µM, respectively.
The matching figures for `CCNc1csc(-c2cc(NCCn3c(C)cc4c(OC)cc(F)cc43)ncn2)c1` [Example 1070, [6-(4-Ethylamino-thiophen-2-yl)-pyrimidin-4-yl]-[2-(6-fluoro-4-methoxy-2-methyl-indol-1-yl)-ethyl]-amine]: 0.01 µM and 0.018 µM.
As to `CCN(C=O)c1csc(-c2cc(NCCn3c(C)cc4c(OC)ccc(F)c43)ncn2)c1` [Example 1071, N-Ethyl-N-(5-{6-[2-(7-fluoro-4-methoxy-2-methyl-indol-1-yl)-ethylamino]-pyrimidin-4-yl}-thiophen-3-yl)-formamide], the IC50 came to 0.023 µM against PTGER2 (EP2) (setting [1]) and 0.04 µM on PTRGER4 (EP4) (setting [2]).
`CCOc1cc(-c2cc(NCCn3c(C)cc4c(OC)ccc(F)c43)ncn2)sc1NC=O` [Example 1072, N-(3-Ethoxy-5-{6-[2-(7-fluoro-4-methoxy-2-methyl-indol-1-yl)-ethylamino]-pyrimidin-4-yl}-thiophen-2-yl)-formamide]: the concentration for half-maximal inhibition (IC50) amounted to 0.003 µM at PTGER2 (EP2) (setting [1]) and 0.017 µM against PTRGER4 (EP4) (setting [2]).
As to `CCOc1cc(-c2cc(NCCn3c(C)cc4c(OC)ccc(F)c43)ncn2)sc1NC(=O)CC` [Example 1073, N-(3-Ethoxy-5-{6-[2-(7-fluoro-4-methoxy-2-methyl-indol-1-yl)-ethylamino]-pyrimidin-4-yl}-thiophen-2-yl)-propionamide], the IC50 against PTGER2 (EP2) (setting [1]) was found to be 0.007 µM; on PTRGER4 (EP4) (setting [2]), 0.014 µM.
For `CCOc1cc(-c2cc(NCCn3c(C)cc4c(OC)ccc(F)c43)ncn2)sc1NC(=O)CCO` [Example 1074, N-(3-Ethoxy-5-{6-[2-(7-fluoro-4-methoxy-2-methyl-indol-1-yl)-ethylamino]-pyrimidin-4-yl}-thiophen-2-yl)-3-hydroxy-propionamide], the IC50 worked out at 0.009 µM on PTGER2 (EP2) (setting [1]) and 0.034 µM against PTRGER4 (EP4) (setting [2]).
As to `CCOc1cc(-c2cc(NCCn3c(C)cc4c(OC)ccc(F)c43)ncn2)sc1NC(N)=O` [Example 1075, (3-Ethoxy-5-{6-[2-(7-fluoro-4-methoxy-2-methyl-indol-1-yl)-ethylamino]-pyrimidin-4-yl}-thiophen-2-yl)-urea], the figures for the IC50 at PTGER2 (EP2) (setting [1]) and against PTRGER4 (EP4) (setting [2]) were 0.007 µM and 0.049 µM, respectively.
In the case of `COc1ccc(F)c2c1cc(C#N)n2CCNc1cc(-c2cc3ccc(C(=O)O)cc3[nH]2)ncn1` [Example 1076, 2-(6-((2-(2-Cyano-7-fluoro-4-methoxy-1H-indol-1-yl)ethyl)amino)pyrimidin-4-yl)-1H-indole-6-carboxylic acid], the IC50 at PTGER2 (EP2) (setting [1]) was determined as 0.006 µM; on PTRGER4 (EP4) (setting [2]) it was 0.039 µM.
On to `Cc1ccc(F)c2c1cc(C)n2CCNc1cc(-c2ccc(N)cc2)ncn1` [compound 1, [6-(4-Amino-phenyl)-pyrimidin-4-yl]-[2-(7-fluoro-2,4-dimethyl-indol-1-yl)-ethyl]-amine], for which the IC50 was 0.05 µM against PTGER2 (EP2) (setting [3]) and 0.616 µM against PTRGER4 (EP4) (setting [4]).
With `COc1nc(-c2cc(NCCn3c(C)cc4c(OC)ccc(F)c43)ncn2)cs1` [compound 2], the IC50 at PTGER2 (EP2) (setting [3]) came out at 0.267 µM; at PTRGER4 (EP4) (setting [4]) it was 0.251 µM.
In the case of `COc1ncc(-c2cc(NCCn3c(C)cc4c(OC)ccc(F)c43)ncn2)s1` [compound 3], the values for the IC50 at PTGER2 (EP2) (setting [3]) and against PTRGER4 (EP4) (setting [4]) were 0.1 µM and 0.769 µM, respectively.
For the compound `Cc1cc2ccccc2n1CCNc1cc(-c2cc(Cl)c(C(=O)O)s2)ncn1` [compound 5], the figures for the IC50 on PTGER2 (EP2) (setting [3]) and at PTRGER4 (EP4) (setting [4]) were 0.005 µM and 0.629 µM, respectively.
Turning to `CCc1cc(-c2cc(NCCn3c(C)cc4ccccc43)ncn2)sc1C(=O)O` [compound 6], the IC50 at PTGER2 (EP2) (setting [3]) came out at 0.003 µM; against PTRGER4 (EP4) (setting [4]) it was 0.911 µM.
The matching figures for `Cc1cc(F)cc2c1cc(C)n2CCNc1cc(-c2ccc3cn[nH]c3c2)ncn1` [compound 7, [2-(6-Fluoro-2,4-dimethyl-indol-1-yl)-ethyl]-[6-(1H-indazol-6-yl)-pyrimidin-4-yl]-amine]: 0.098 µM and 0.556 µM.
As to `COc1cccc2c1cc(C)n2CCNc1cc(-c2ccc3[nH]cnc3c2)ncn1` [compound 8, [6-(1H-Benzoimidazol-5-yl)-pyrimidin-4-yl]-[2-(4-methoxy-2-methyl-indol-1-yl)-ethyl]-amine], the IC50 was found to be 0.009 µM against PTGER2 (EP2) (setting [3]) and 0.333 µM on PTRGER4 (EP4) (setting [4]).
`Cc1cc(F)cc2c1cc(C)n2CCNc1cc(-c2ccc3cc[nH]c3c2)ncn1` [compound 10, [2-(6-Fluoro-2,4-dimethyl-indol-1-yl)-ethyl]-[6-(1H-indol-6-yl)-pyrimidin-4-yl]-amine]: the IC50 turned out to be 0.069 µM against PTGER2 (EP2) (setting [3]) and 0.691 µM against PTRGER4 (EP4) (setting [4]).
The matching figures for `Cc1ccc(F)c2c1cc(C)n2CCNc1cc(-c2ccc3c(c2)CCN3)ncn1` [compound 11, [6-(2,3-Dihydro-1H-indol-5-yl)-pyrimidin-4-yl]-[2-(7-fluoro-2,4-dimethyl-indol-1-yl)-ethyl]-amine]: 0.02 µM and 0.124 µM.

The values are drawn from patent US12011444B2, “N-substituted indole derivatives as PGE2 receptor modulators” (Idorsia Pharmaceuticals Ltd, priority 2015, dated 2024).
